Assay results from ChEMBL document CHEMBL4052761, “20(R)-Ginsenoside Rg3 protects SH-SY5Y cells against apoptosis induced by oxygen and glucose deprivation/reperfusion” (2017).
Active and inactive are the calls of the source. The rule behind the calls is not given here.

Legend:
SH-SY5Y [1] = assay: Cytoprotection against oxygen-glucose deprivation/reperfusion-induced cell death in human SH-SY5Y cells assessed as reduction in LDH leakage at 25 to 125 umol/L pretreated for 24 hrs followed by oxygen-glucose deprivation for 10 hrs and reperfusion for 24 hrs; assay type: functional, cell-based
SH-SY5Y [2] = assay: Cytoprotection against oxygen-glucose deprivation/reperfusion-induced cell death in human SH-SY5Y cells assessed as decrease in Bax protein level at 5 to 125 umol/L pretreated for 24 hrs followed by oxygen-glucose deprivation for 10 hrs and reperfusion for 24 hrs by Western blot analysis; assay type: functional, cell-based
SH-SY5Y [3] = assay: Cytoprotection against oxygen-glucose deprivation/reperfusion-induced cell death in human SH-SY5Y cells assessed as decrease in cleaved caspase-3 level at 25 to 125 umol/L pretreated for 24 hrs followed by oxygen-glucose deprivation for 10 hrs and reperfusion for 24 hrs by Western blot analysis; assay type: functional, cell-based
SH-SY5Y [4] = assay: Cytoprotection against oxygen-glucose deprivation/reperfusion-induced cell death in human SH-SY5Y cells assessed as decrease in Bax m-RNA expression pretreated for 24 hrs followed by oxygen-glucose deprivation for 10 hrs and reperfusion for 24 hrs by RT-qPCR analysis; assay type: functional, cell-based
SH-SY5Y [5] = assay: (§1) Cytoprotection against oxygen-glucose deprivation/reperfusion-induced cell death in human SH-SY5Y cells assessed as viable cells at 5 umol/L pretreated for 24 hrs followed by oxygen-glucose deprivation for 10 hrs and reperfusion for 24 hrs by annexin V-FITC-propidium iodide staining-based flow cytometry method (reference value: 63.2%); assay type: functional; conditions: read-out: Activity
SH-SY5Y [6] = assay: as §1, with “as late apoptotic” for “as viable”, “at 1” for “at 5”, “value: 10.5%)” for “value: 63.2%)”; assay type: functional
SH-SY5Y [7] = assay: Cytoprotection against oxygen-glucose deprivation/reperfusion-induced cell death in human SH-SY5Y cells assessed as increase in cell viability at 25 to 125 umol/L pretreated for 24 hrs followed by oxygen-glucose deprivation for 10 hrs and reperfusion for 24 hrs by MTT assay; assay type: functional, cell-based
SH-SY5Y [8] = assay: as §1, with “early apoptotic” for “viable”, “24.0%)” for “63.2%)”; assay type: functional
SH-SY5Y [9] = assay: as §1, with “as necrotic” for “as viable”, “at 125” for “at 5”, “value: 2.3%)” for “value: 63.2%)”; assay type: functional
SH-SY5Y [10] = assay: as §1, with “at 25” for “at 5”; assay type: functional; conditions: read-out: Activity
SH-SY5Y [11] = assay: as §1, with “as late apoptotic” for “as viable”, “at 125” for “at 5”, “value: 10.5%)” for “value: 63.2%)”; assay type: functional
SH-SY5Y [12] = assay: Cytoprotection against oxygen-glucose deprivation/reperfusion-induced cell death in human SH-SY5Y cells assessed as reduction in LDH leakage at 1 to 5 umol/L pretreated for 24 hrs followed by oxygen-glucose deprivation for 10 hrs and reperfusion for 24 hrs; assay type: functional, cell-based
SH-SY5Y [13] = assay: as §1, with “early apoptotic” for “viable”, “cells” for “cells at 5 umol/L”, “24.0%)” for “63.2%)”; assay type: functional
SH-SY5Y [14] = assay: Cytoprotection against oxygen-glucose deprivation/reperfusion-induced cell death in human SH-SY5Y cells assessed as decrease in Bax m-RNA expression at 125 umol/L pretreated for 24 hrs followed by oxygen-glucose deprivation for 10 hrs and reperfusion for 24 hrs by RT-qPCR analysis; assay type: functional, cell-based
SH-SY5Y [15] = assay: as §1, with “as late apoptotic” for “as viable”, “at 25” for “at 5”, “value: 10.5%)” for “value: 63.2%)”; assay type: functional
SH-SY5Y [16] = assay: Cytoprotection against oxygen-glucose deprivation/reperfusion-induced cell death in human SH-SY5Y cells assessed as increase in Bcl2 m-RNA expression pretreated for 24 hrs followed by oxygen-glucose deprivation for 10 hrs and reperfusion for 24 hrs by RT-qPCR analysis; assay type: functional, cell-based
SH-SY5Y [17] = assay: as §1, with “late apoptotic” for “viable”, “10.5%)” for “63.2%)”; assay type: functional
SH-SY5Y [18] = assay: as §1, with “cells” for “cells at 5 umol/L”; assay type: functional
SH-SY5Y [19] = assay: as §1, with “as early apoptotic” for “as viable”, “at 125” for “at 5”, “value: 24.0%)” for “value: 63.2%)”; assay type: functional
SH-SY5Y [20] = assay: as §1, with “at 125” for “at 5”; assay type: functional; conditions: read-out: Activity
SH-SY5Y [21] = assay: as §1, with “at 1” for “at 5”; assay type: functional; conditions: read-out: Activity
SH-SY5Y [22] = assay: as §1, with “late apoptotic” for “viable”, “cells” for “cells at 5 umol/L”, “10.5%)” for “63.2%)”; assay type: functional
SH-SY5Y [23] = assay: as §1, with “as necrotic” for “as viable”, “at 25” for “at 5”, “value: 2.3%)” for “value: 63.2%)”; assay type: functional
SH-SY5Y [24] = assay: as §1, with “as early apoptotic” for “as viable”, “at 25” for “at 5”, “value: 24.0%)” for “value: 63.2%)”; assay type: functional
SH-SY5Y [25] = assay: as §1, with “as necrotic” for “as viable”, “at 1” for “at 5”, “value: 2.3%)” for “value: 63.2%)”; assay type: functional
SH-SY5Y [26] = assay: as §1, with “necrotic” for “viable”, “cells” for “cells at 5 umol/L”, “2.3%)” for “63.2%)”; assay type: functional
SH-SY5Y [27] = assay: Cytoprotection against oxygen-glucose deprivation/reperfusion-induced cell death in human SH-SY5Y cells assessed as increase in Bcl2 m-RNA expression at 125 umol/L pretreated for 24 hrs followed by oxygen-glucose deprivation for 10 hrs and reperfusion for 24 hrs by RT-qPCR analysis; assay type: functional, cell-based
SH-SY5Y [28] = assay: Cytoprotection against oxygen-glucose deprivation/reperfusion-induced cell death in human SH-SY5Y cells assessed as increase in Bcl-2 protein level at 5 to 125 umol/L pretreated for 24 hrs followed by oxygen-glucose deprivation for 10 hrs and reperfusion for 24 hrs by Western blot analysis; assay type: functional, cell-based
SH-SY5Y [29] = assay: as §1, with “as early apoptotic” for “as viable”, “at 1” for “at 5”, “value: 24.0%)” for “value: 63.2%)”; assay type: functional
SH-SY5Y [30] = assay: as §1, with “necrotic” for “viable”, “2.3%)” for “63.2%)”; assay type: functional
SH-SY5Y [31] = assay: Cytoprotection against oxygen-glucose deprivation/reperfusion-induced cell death in human SH-SY5Y cells assessed as decrease in Bax m-RNA expression at 100 umol/L pretreated for 24 hrs followed by oxygen-glucose deprivation for 10 hrs and reperfusion for 24 hrs by RT-qPCR analysis; assay type: functional, cell-based
SH-SY5Y [32] = assay: Cytoprotection against oxygen-glucose deprivation/reperfusion-induced cell death in human SH-SY5Y cells assessed as increase in cell viability at 100 umol/L pretreated for 24 hrs followed by oxygen-glucose deprivation for 10 hrs and reperfusion for 24 hrs by MTT assay; assay type: functional, cell-based
SH-SY5Y [33] = assay: Cytoprotection against oxygen-glucose deprivation/reperfusion-induced cell death in human SH-SY5Y cells assessed as increase in Bcl2 m-RNA expression at 100 umol/L pretreated for 24 hrs followed by oxygen-glucose deprivation for 10 hrs and reperfusion for 24 hrs by RT-qPCR analysis; assay type: functional, cell-based
SH-SY5Y [34] = assay: Cytoprotection against oxygen-glucose deprivation/reperfusion-induced cell death in human SH-SY5Y cells assessed as reduction in LDH leakage at 100 umol/L pretreated for 24 hrs followed by oxygen-glucose deprivation for 10 hrs and reperfusion for 24 hrs; assay type: functional, cell-based
SH-SY5Y [35] = assay: Cytoprotection against oxygen-glucose deprivation/reperfusion-induced cell death in human SH-SY5Y cells assessed as decrease in cleaved caspase-3 level at 100 umol/L pretreated for 24 hrs followed by oxygen-glucose deprivation for 10 hrs and reperfusion for 24 hrs by Western blot analysis; assay type: functional, cell-based

For CC(C)=CCC[C@](C)(O)[C@H]1CC[C@]2(C)[C@@H]1[C@H](O)C[C@@H]1[C@@]3(C)CC[C@H](O[C@@H]4O[C@H](CO)[C@@H](O)[C@H](O)[C@H]4O[C@@H]4O[C@H](CO)[C@@H](O)[C@H](O)[C@H]4O)C(C)(C)[C@@H]3CC[C@]12C, the Activity (SH-SY5Y [1]) was “Active”, the Activity (SH-SY5Y [2]) was “Active” and the Activity (SH-SY5Y [3]) was “Active”. For the same molecule, the Activity (SH-SY5Y [4]) was “Dose-dependent effect”, the viability at 5 µM (SH-SY5Y [5]) was 70% and the Activity (SH-SY5Y [6]) was 10.3%. For the same molecule, the Activity (SH-SY5Y [7]) was “Active”, the Activity (SH-SY5Y [8]) was 13% and the Activity (SH-SY5Y [9]) was 9.8%. For the same molecule, the viability at 25 µM (SH-SY5Y [10]) was 77.5%, the Activity (SH-SY5Y [11]) was 4.8% and the Activity (SH-SY5Y [12]) was “inactive”. The Activity (SH-SY5Y [13]) was 8%, the Activity (SH-SY5Y [14]) was “Active” and the Activity (SH-SY5Y [15]) was 5.7%. The Activity (SH-SY5Y [16]) was “Dose-dependent effect”, the Activity (SH-SY5Y [17]) was 11.3% and the Activity (SH-SY5Y [18]) was 80.4%. The Activity (SH-SY5Y [19]) was 5%, the viability at 125 µM (SH-SY5Y [20]) was 80.4% and the viability at 1 µM (SH-SY5Y [21]) was 69.9%. For the same molecule, the Activity (SH-SY5Y [22]) was 2.8%, the Activity (SH-SY5Y [23]) was 8.9% and the Activity (SH-SY5Y [24]) was 7.9%. The Activity (SH-SY5Y [25]) was 2.7%, the Activity (SH-SY5Y [26]) was 8.9% and the Activity (SH-SY5Y [27]) was “Active”. The Activity (SH-SY5Y [28]) was “Active”, the Activity (SH-SY5Y [29]) was 17% and the Activity (SH-SY5Y [30]) was 5.8%.

COCCOC(=O)C1=C(C)NC(C)=C(C(=O)OC(C)C)C1c1cccc([N+](=O)[O-])c1 (stereo not given) was tested, and the Activity (SH-SY5Y [31]) was “Active”, the Activity (SH-SY5Y [32]) was “Active” and the Activity (SH-SY5Y [33]) was “Active”. For the same molecule, the Activity (SH-SY5Y [34]) was “Active” and the Activity (SH-SY5Y [35]) was “Active”.
